Earlier results, collected in patent publication US8105627B2, “Extended release venlafaxine tablet formulation” (priority 2003, dated 2012).
Where a name gives a salt, the structure may show the parent alone.

Details: plural daily dosing regimen

For `COc1ccc(C(CN(C)C)C2(O)CCCCC2)cc1` (centres unmarked) [venlafaxine hydrochloride, 1-[(2-dimethylamino)-1-(4-methoxyphenyl)ethyl]cyclohexanol], the patients experiencing nausea is listed as “about forty five percent” and the “patients in whom vomiting occurs” value is listed as “about seventeen percent”.
